Experimental data reported in patent publication US6653339B2, “Method of treating irritable bowel syndrome” (Pfizer Inc., priority 2001, dated 2003).

Test system: irritable bowel syndrome
Assay: Clinical Study 3, immediate release darifenacin three times daily vs placebo in irritable bowel syndrome
Format: in vivo, human
Conditions: for Constipation % of patients reporting AEs corrected for placebo / Dry Mouth % of patients reporting AEs corrected for placebo / Global Rating % Reduction from baseline corrected for placebo / Loose Stool % Reduction from baseline corrected for placebo / Pain Score % Reduction from baseline corrected for placebo / Total AE % of patients reporting AEs corrected for placebo / Urgency % Reduction from baseline corrected for placebo / Vision % of patients reporting AEs corrected for placebo / Constipation % of patients reporting AEs / Dry Mouth % of patients reporting AEs / Global Rating % Reduction from baseline / Loose Stool % Reduction from baseline / Pain Score % Reduction from baseline / Total AE % of patients reporting AEs / Urgency % Reduction from baseline / Vision % of patients reporting AEs: Clinical Study 3, 12 weeks; for Constipation % of patients reporting AEs / Dry Mouth % of patients reporting AEs / Global Rating % Reduction from baseline / Loose Stool % Reduction from baseline / Pain Score % Reduction from baseline / Total AE % of patients reporting AEs / Urgency % Reduction from baseline / Vision % of patients reporting AEs: uncorrected
Source text: The invention may be illustrated by the following clinical studies wherein the treatment of irritable bowel syndrome using darifenacin administered as a once-daily controlled (slow) release formulation in accordance with the prior art is compared with treatment using darifenacin administered as a thrice daily immediate release formulation in accordance with the present invention. Specifically, Clinical Studies 1 and 2 used controlled (slow) release formulations of darifenacin administered once daily (od) and Clinical Study 3 used an immediate release formulation of darifenacin administered three times daily (tid).
During each clinical study, four efficacy measures of irritable bowel syndrome severity were measured, viz. ‘Pain Score’ (Average daily pain score, a composite of severity and number of days of pain), ‘Loose Stool’ (Number of days on which loose or watery stool occurred), ‘Urgency’ (Number of days on which urgency occured) and so-called ‘Global Rating’ (Patient rating of their condition taking into account all symptoms, 0=no problems). Adverse events (AE) such as constipation, dry mouth and visual abnormalities were also recorded.
Clinical Study 3 was a multi-centre, double-blind, randomised, placebo-controlled parallel group study in which three dose strengths of darifenacin 1.25, 2.5 and 5 mg dosed tid were compared with placebo. Treatment lasted 12 weeks following a 2-week run-in period.
The immediate release dosage forms of darifenacin used in Clinical Study 3 were 1.25 mg, 2.5 mg and 5.0 mg capsules having the following compositions in a Size 3 capsule shell: […]

[1] = immediate release capsule 3 × 1.25 mg (tid)
[2] = immediate release capsule 3 × 2.5 mg (tid)
[3] = immediate release capsule 3 × 5.0 mg (tid)

SMILES: NC(=O)C(c1ccccc1)(c1ccccc1)[C@@H]1CCN(CCc2ccc3c(c2)CCO3)C1 [darifenacin]
- Constipation % of patients reporting AEs corrected for placebo [1]: 3.4%
- Dry Mouth % of patients reporting AEs corrected for placebo [1]: 0.3%
- Global Rating % Reduction from baseline corrected for placebo [1]: 9%
- Loose Stool % Reduction from baseline corrected for placebo [1]: 8%
- Pain Score % Reduction from baseline corrected for placebo [1]: 10%
- Total AE % of patients reporting AEs corrected for placebo [1]: −4%
- Urgency % Reduction from baseline corrected for placebo [1]: 11%
- Vision % of patients reporting AEs corrected for placebo [1]: −2.2%
- Constipation % of patients reporting AEs [1]: 6.3%
- Dry Mouth % of patients reporting AEs [1]: 16%
- Global Rating % Reduction from baseline [1]: 27%
- Loose Stool % Reduction from baseline [1]: 16%
- Pain Score % Reduction from baseline [1]: 33%
- Total AE % of patients reporting AEs [1]: 36%
- Urgency % Reduction from baseline [1]: 36%
- Vision % of patients reporting AEs [1]: 1.4%
- Constipation % of patients reporting AEs corrected for placebo [2]: 5.6%
- Dry Mouth % of patients reporting AEs corrected for placebo [2]: 8.8%
- Global Rating % Reduction from baseline corrected for placebo [2]: 11%
- Loose Stool % Reduction from baseline corrected for placebo [2]: 22%
- Pain Score % Reduction from baseline corrected for placebo [2]: 17%
- Total AE % of patients reporting AEs corrected for placebo [2]: −3%
- Urgency % Reduction from baseline corrected for placebo [2]: 17%
- Vision % of patients reporting AEs corrected for placebo [2]: −0.1%
- Constipation % of patients reporting AEs [2]: 5.6%
- Dry Mouth % of patients reporting AEs [2]: 24.5%
- Global Rating % Reduction from baseline [2]: 29%
- Loose Stool % Reduction from baseline [2]: 30%
- Pain Score % Reduction from baseline [2]: 40%
- Total AE % of patients reporting AEs [2]: 37%
- Urgency % Reduction from baseline [2]: 42%
- Vision % of patients reporting AEs [2]: 3.5%
- Constipation % of patients reporting AEs corrected for placebo [3]: 8.4%
- Dry Mouth % of patients reporting AEs corrected for placebo [3]: 33.9%
- Global Rating % Reduction from baseline corrected for placebo [3]: 14%
- Loose Stool % Reduction from baseline corrected for placebo [3]: 44%
- Pain Score % Reduction from baseline corrected for placebo [3]: 13%
- Total AE % of patients reporting AEs corrected for placebo [3]: 20%
- Urgency % Reduction from baseline corrected for placebo [3]: 32%
- Vision % of patients reporting AEs corrected for placebo [3]: 4.2%
- Constipation % of patients reporting AEs [3]: 11.3%
- Dry Mouth % of patients reporting AEs [3]: 49.6%
- Global Rating % Reduction from baseline [3]: 32%
- Loose Stool % Reduction from baseline [3]: 52%
- Pain Score % Reduction from baseline [3]: 36%
- Total AE % of patients reporting AEs [3]: 60%
- Urgency % Reduction from baseline [3]: 57%
- Vision % of patients reporting AEs [3]: 7.8%
- all four efficacy measures (Pain Score, Loose Stool, Urgency and Global Rating) (immediate release tid study, all three doses): marked improvements
